Reference: paper PMC7558026, “Exploring and applying the substrate promiscuity of a C-glycosyltransferase in the chemo-enzymatic synthesis of bioactive C-glycosides” (Nature Communications, 2020)

Tests used:
Assay type in all cases: biochemical, Aloe barbadensis
[1] = target: T1, AbCGT (Aloe vera, UniProt A0A7G9P699); assay: Kinetic parameters of AbCGT (wild type); conditions: acceptor varied, saturating UDP-Glc, pH 7.4, 30 °C
Procedure: The reactions terminated by the addition of 200 μL of ice-cold methanol. Subsequently, samples were centrifuged at 15,000 × g for 30 min to collect the supernatant, and aliquots were analyzed by HPLC as described above. All experiments were performed in triplicate. The value of Km was calculated with the method of Lineweaver–Burk plot.

[2] = target: T1, AbCGT; assay: Glycosyltransferase activity assay, purified AbCGT (wild type) with aglycon acceptors and UDP-Glc; conditions: aglycon acceptor with UDP-Glc, pH 7.4, 30 °C, up to 12 h; Reaction-1 to -3
[3] = test system: AbCGT; assay: Effects of pH, temperature and divalent metal ions on AbCGT activity (phloretin 17 + UDP-Glc)
Procedure: To assay for the optimal reaction temperature, the reaction mixtures were incubated at pH 11.0 and different temperatures (15–60 °C). To test the necessity of divalent metal ions for AbCGT, BaCl2, CaCl2, CoCl2, CuCl2, FeCl2, MgCl2, MnCl2, ZnCl2, and EDTA were used individually at a final concentration of 5 mM. […] For quantification, three parallel assays were routinely carried out.

[4] = test system: AbCGT; assay: as above; remark: listed apart in the source
[5] = pH 5.0, citric acid-sodium citrate buffer, reaction-1
[6] = pH 5.0, citric acid-sodium citrate buffer, reaction-2
[7] = pH 5.0, citric acid-sodium citrate buffer, reaction-3
[8] = pH 6.0, Na2HPO4-NaH2PO4 buffer, reaction-1
[9] = pH 6.0, Na2HPO4-NaH2PO4 buffer, reaction-2
[10] = pH 6.0, Na2HPO4-NaH2PO4 buffer, reaction-3
[11] = pH 6.0, citric acid-sodium citrate buffer, reaction-1
[12] = pH 6.0, citric acid-sodium citrate buffer, reaction-2
[13] = pH 6.0, citric acid-sodium citrate buffer, reaction-3
[14] = pH 7.0, Na2HPO4-NaH2PO4 buffer, reaction-1
[15] = pH 7.0, Na2HPO4-NaH2PO4 buffer, reaction-2
[16] = pH 7.0, Na2HPO4-NaH2PO4 buffer, reaction-3
[17] = pH 7.0, Tris-HCl buffer, reaction-1
[18] = pH 7.0, Tris-HCl buffer, reaction-2
[19] = pH 7.0, Tris-HCl buffer, reaction-3
[20] = pH 8.0, Tris-HCl buffer, reaction-1
[21] = pH 8.0, Tris-HCl buffer, reaction-2
[22] = pH 8.0, Tris-HCl buffer, reaction-3
[23] = pH 9.0, Na2CO3-NaHCO3 buffer, reaction-1
[24] = pH 9.0, Na2CO3-NaHCO3 buffer, reaction-2
[25] = pH 9.0, Na2CO3-NaHCO3 buffer, reaction-3
[26] = pH 9.0, Tris-HCl buffer, reaction-1
[27] = pH 9.0, Tris-HCl buffer, reaction-2
[28] = pH 9.0, Tris-HCl buffer, reaction-3
[29] = pH 10.0, Na2CO3-NaHCO3 buffer, reaction-1
[30] = pH 10.0, Na2CO3-NaHCO3 buffer, reaction-2
[31] = pH 10.0, Na2CO3-NaHCO3 buffer, reaction-3
[32] = pH 11.0, Na2CO3-NaHCO3 buffer, reaction-1
[33] = pH 11.0, Na2CO3-NaHCO3 buffer, reaction-2
[34] = pH 11.0, Na2CO3-NaHCO3 buffer, reaction-3
[35] = pH 12.0, Na2CO3-NaHCO3 buffer, reaction-1
[36] = pH 12.0, Na2CO3-NaHCO3 buffer, reaction-2
[37] = pH 12.0, Na2CO3-NaHCO3 buffer, reaction-3

T1 sequence (A0A7G9P699 entry or part of it): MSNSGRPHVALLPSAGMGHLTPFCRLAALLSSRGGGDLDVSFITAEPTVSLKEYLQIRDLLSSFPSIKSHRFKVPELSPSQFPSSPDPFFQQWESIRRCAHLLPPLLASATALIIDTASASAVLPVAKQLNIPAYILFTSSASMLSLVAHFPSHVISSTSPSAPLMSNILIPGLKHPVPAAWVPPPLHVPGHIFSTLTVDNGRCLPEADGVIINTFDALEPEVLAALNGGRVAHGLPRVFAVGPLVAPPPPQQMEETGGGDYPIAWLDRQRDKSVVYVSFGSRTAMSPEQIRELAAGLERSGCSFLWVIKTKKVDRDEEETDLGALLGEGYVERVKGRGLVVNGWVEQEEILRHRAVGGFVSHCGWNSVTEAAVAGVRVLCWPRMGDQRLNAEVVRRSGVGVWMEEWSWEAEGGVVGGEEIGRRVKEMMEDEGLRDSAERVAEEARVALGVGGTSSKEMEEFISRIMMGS

O=C(CCc1ccc(O)cc1)c1c(O)cc(O)cc1O [Compound 17, phloretin] was tested, and the Kcat [1] was 2 s⁻¹, the “conversion rates, O,N,S-glycosylation” value [2] was 0% and the “conversion rates, di-C-glycosylation” value [2] was 100%. For the same molecule, the “conversion rates, mono-C-glycosylation” value [2] was 0%, the “conversion rates of Phloretin” value ([3]; Temperature 15, reaction-1) was 11 and the relative activity ([3]; Temperature 15, reaction-1) was 11.0. For the same molecule, the “conversion rates of Phloretin” value ([3]; Temperature 15, reaction-2) was 10.9, the relative activity ([3]; Temperature 15, reaction-2) was 10.9 and the “conversion rates of Phloretin” value ([3]; Temperature 15, reaction-3) was 12.9. The relative activity ([3]; Temperature 15, reaction-3) was 12.9, the “conversion rates of Phloretin” value ([3]; Temperature 25, reaction-1) was 18.8 and the relative activity ([3]; Temperature 25, reaction-1) was 18.8. For the same molecule, the “conversion rates of Phloretin” value ([3]; Temperature 25, reaction-2) was 21.4, the relative activity ([3]; Temperature 25, reaction-2) was 21.4 and the “conversion rates of Phloretin” value ([3]; Temperature 25, reaction-3) was 24.7. For the same molecule, the relative activity ([3]; Temperature 25, reaction-3) was 24.7, the “conversion rates of Phloretin” value ([3]; Temperature 30, reaction-1) was 39.8 and the relative activity ([3]; Temperature 30, reaction-1) was 39.9. For the same molecule, the “conversion rates of Phloretin” value ([3]; Temperature 30, reaction-2) was 36.9, the relative activity ([3]; Temperature 30, reaction-2) was 37.0 and the “conversion rates of Phloretin” value ([3]; Temperature 30, reaction-3) was 38.5. The relative activity ([3]; Temperature 30, reaction-3) was 38.6, the “conversion rates of Phloretin” value ([3]; Temperature 35, reaction-1) was 64.8 and the relative activity ([3]; Temperature 35, reaction-1) was 64.9. The “conversion rates of Phloretin” value ([3]; Temperature 35, reaction-2) was 57.8, the relative activity ([3]; Temperature 35, reaction-2) was 57.9 and the “conversion rates of Phloretin” value ([3]; Temperature 35, reaction-3) was 60.7. The relative activity ([3]; Temperature 35, reaction-3) was 60.8, the “conversion rates of Phloretin” value ([3]; Temperature 40, reaction-1) was 78.1 and the relative activity ([3]; Temperature 40, reaction-1) was 78.3. For the same molecule, the “conversion rates of Phloretin” value ([3]; Temperature 40, reaction-2) was 81, the relative activity ([3]; Temperature 40, reaction-2) was 81.2 and the “conversion rates of Phloretin” value ([3]; Temperature 40, reaction-3) was 73.2. The relative activity ([3]; Temperature 40, reaction-3) was 73.3, the “conversion rates of Phloretin” value ([3]; Temperature 45, reaction-1) was 99.4 and the relative activity ([3]; Temperature 45, reaction-1) was 99.6. The “conversion rates of Phloretin” value ([3]; Temperature 45, reaction-2) was 100, the relative activity ([3]; Temperature 45, reaction-2) was 100.2 and the “conversion rates of Phloretin” value ([3]; Temperature 45, reaction-3) was 100. For the same molecule, the relative activity ([3]; Temperature 45, reaction-3) was 100.2, the “conversion rates of Phloretin” value ([3]; Temperature 50, reaction-1) was 97.7 and the relative activity ([3]; Temperature 50, reaction-1) was 97.9. The “conversion rates of Phloretin” value ([3]; Temperature 50, reaction-2) was 98, the relative activity ([3]; Temperature 50, reaction-2) was 98.2 and the “conversion rates of Phloretin” value ([3]; Temperature 50, reaction-3) was 99.1. The relative activity ([3]; Temperature 50, reaction-3) was 99.3, the “conversion rates of Phloretin” value ([3]; Temperature 55, reaction-1) was 96.5 and the relative activity ([3]; Temperature 55, reaction-1) was 96.7. For the same molecule, the “conversion rates of Phloretin” value ([3]; Temperature 55, reaction-2) was 95.7, the relative activity ([3]; Temperature 55, reaction-2) was 95.9 and the “conversion rates of Phloretin” value ([3]; Temperature 55, reaction-3) was 93.3. The relative activity ([3]; Temperature 55, reaction-3) was 93.5, the “conversion rates of Phloretin” value ([3]; Temperature 60, reaction-1) was 75.4 and the relative activity ([3]; Temperature 60, reaction-1) was 75.6. The “conversion rates of Phloretin” value ([3]; Temperature 60, reaction-2) was 85.7, the relative activity ([3]; Temperature 60, reaction-2) was 85.9 and the “conversion rates of Phloretin” value ([3]; Temperature 60, reaction-3) was 80. For the same molecule, the relative activity ([3]; Temperature 60, reaction-3) was 80.2, the “conversion rates of Phloretin” value [3, 5] was 0.2 and the “conversion rates of Phloretin” value [3, 6] was 0.1. For the same molecule, the relative activity [3, 6] was 0.1, the “conversion rates of Phloretin” value [3, 7] was 0.2 and the relative activity [3, 7] was 0.2. For the same molecule, the “conversion rates of Phloretin” value [3, 8] was 23.7, the relative activity [3, 8] was 23.8 and the “conversion rates of Phloretin” value [3, 9] was 25.1. For the same molecule, the “conversion rates of Phloretin” value [3, 10] was 25.4, the relative activity [3, 10] was 25.5 and the “conversion rates of Phloretin” value [3, 11] was 11.7. The relative activity [3, 11] was 11.8, the “conversion rates of Phloretin” value [3, 12] was 15.2 and the relative activity [3, 12] was 15.3. The “conversion rates of Phloretin” value [3, 13] was 13, the relative activity [3, 13] was 13.1 and the “conversion rates of Phloretin” value [3, 14] was 30.8. For the same molecule, the relative activity [3, 14] was 30.9, the “conversion rates of Phloretin” value [3, 15] was 28 and the relative activity [3, 15] was 28.1. For the same molecule, the “conversion rates of Phloretin” value [3, 16] was 30.7, the relative activity [3, 16] was 30.8 and the “conversion rates of Phloretin” value [3, 17] was 34.2. The relative activity [3, 17] was 34.4, the “conversion rates of Phloretin” value [3, 18] was 33.6 and the relative activity [3, 18] was 33.8. The “conversion rates of Phloretin” value [3, 19] was 34.8, the relative activity [3, 19] was 35.0 and the “conversion rates of Phloretin” value [3, 20] was 35. For the same molecule, the relative activity [3, 20] was 35.2, the “conversion rates of Phloretin” value [3, 21] was 36.1 and the relative activity [3, 21] was 36.3. For the same molecule, the “conversion rates of Phloretin” value [3, 22] was 35.4, the relative activity [3, 22] was 35.6 and the “conversion rates of Phloretin” value [3, 23] was 53. For the same molecule, the relative activity [3, 23] was 53.2, the “conversion rates of Phloretin” value [3, 24] was 52.2 and the relative activity [3, 24] was 52.4. The “conversion rates of Phloretin” value [3, 25] was 53.9, the relative activity [3, 25] was 54.2 and the “conversion rates of Phloretin” value [3, 26] was 45.9. The relative activity [3, 26] was 46.1, the “conversion rates of Phloretin” value [3, 27] was 46.5 and the relative activity [3, 27] was 46.7. The “conversion rates of Phloretin” value [3, 28] was 53, the relative activity [3, 28] was 53.2 and the “conversion rates of Phloretin” value [3, 29] was 89.2. The relative activity [3, 29] was 89.6, the “conversion rates of Phloretin” value [3, 30] was 93 and the relative activity [3, 30] was 93.4. The “conversion rates of Phloretin” value [3, 31] was 92.7, the relative activity [3, 31] was 93.1 and the “conversion rates of Phloretin” value [3, 32] was 99.2. The relative activity [3, 32] was 99.7, the “conversion rates of Phloretin” value [3, 33] was 100 and the relative activity [3, 33] was 100.5. The “conversion rates of Phloretin” value [3, 34] was 99.4, the relative activity [3, 34] was 99.9 and the “conversion rates of Phloretin” value [3, 35] was 0. The relative activity [3, 35] was 0.0, the “conversion rates of Phloretin” value [3, 36] was 0 and the relative activity [3, 36] was 0.0. The “conversion rates of Phloretin” value [3, 37] was 0, the relative activity [3, 37] was 0.0 and the relative activity [4, 5] was 0.2. The relative activity [4, 9] was 25.2.
